Tested on: KRAS PDC multicell spheroid viability
Assay: Anticancer human tumor 825966-067-R-J1-PDC patient-derived colon carcinoma cell line growth inhibition [KRAS2]
Conditions: for IC50: curve of first compound; for viability, T/C: stronger effect = lower value
Summary of the method: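 Combination screen of spheroid viability in tumor-cell co-cultures with endothelial (HUVEC) and mesenchymal stem cell stroma. Each agent was tested in half-log dilutions, topping at clinical Cmax or at 10 microM without a known Cmax.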

[1] = second compound 0.1 µM, first compound 0.0316 µM
[2] = second compound 0.1 µM, first compound 0.1 µM
[3] = second compound 0.1 µM, first compound 0.316 µM
[4] = second compound 0.1 µM, first compound 1 µM
[5] = second compound 0.1 µM, first compound 3.16 µM
[6] = second compound 0.1 µM, first compound 10 µM
[7] = second compound 0.316 µM, first compound 0.0316 µM
[8] = second compound 0.316 µM, first compound 0.1 µM
[9] = second compound 0.316 µM, first compound 0.316 µM
[10] = second compound 0.316 µM, first compound 1 µM
[11] = second compound 0.316 µM, first compound 3.16 µM
[12] = second compound 0.316 µM, first compound 10 µM
[13] = second compound 1 µM, first compound 0.0316 µM
[14] = second compound 1 µM, first compound 0.1 µM
[15] = second compound 1 µM, first compound 0.316 µM
[16] = second compound 1 µM, first compound 1 µM
[17] = second compound 1 µM, first compound 3.16 µM
[18] = second compound 1 µM, first compound 10 µM
[19] = second compound 3.16 µM, first compound 0.0316 µM
[20] = second compound 3.16 µM, first compound 0.1 µM
[21] = second compound 3.16 µM, first compound 0.316 µM
[22] = second compound 3.16 µM, first compound 1 µM
[23] = second compound 3.16 µM, first compound 3.16 µM
[24] = second compound 3.16 µM, first compound 10 µM
[25] = second compound 10 µM, first compound 0.0316 µM
[26] = second compound 10 µM, first compound 0.1 µM
[27] = second compound 10 µM, first compound 0.316 µM
[28] = second compound 10 µM, first compound 1 µM
[29] = second compound 10 µM, first compound 3.16 µM
[30] = second compound 10 µM, first compound 10 µM
[31] = second compound 0.0316 µM, first compound 0.000316 µM
[32] = second compound 0.0316 µM, first compound 0.001 µM
[33] = second compound 0.0316 µM, first compound 0.00316 µM
[34] = second compound 0.0316 µM, first compound 0.01 µM
[35] = second compound 0.0316 µM, first compound 0.0316 µM
[36] = second compound 0.1 µM, first compound 0.000316 µM
[37] = second compound 0.1 µM, first compound 0.001 µM
[38] = second compound 0.1 µM, first compound 0.00316 µM
[39] = second compound 0.1 µM, first compound 0.01 µM
[40] = second compound 0.316 µM, first compound 0.000316 µM
[41] = second compound 0.316 µM, first compound 0.001 µM
[42] = second compound 0.316 µM, first compound 0.00316 µM
[43] = second compound 0.316 µM, first compound 0.01 µM
[44] = second compound 1 µM, first compound 0.000316 µM
[45] = second compound 1 µM, first compound 0.001 µM
[46] = second compound 1 µM, first compound 0.00316 µM
[47] = second compound 1 µM, first compound 0.01 µM
[48] = second compound 3.16 µM, first compound 0.000316 µM
[49] = second compound 3.16 µM, first compound 0.001 µM
[50] = second compound 3.16 µM, first compound 0.00316 µM
[51] = second compound 3.16 µM, first compound 0.01 µM
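Also: spheroids exposed to compounds for 7 days.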
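For viability, T/C in this document: 100% = DMSO vehicle control viability.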

COc1cc(Nc2ncc3c(n2)-c2ccc(Cl)cc2C(c2c(F)cccc2OC)=NC3)ccc1C(=O)O + CNCc1ccccc1-c1csc(C(C)Nc2nc(C)nc3cc(OC)c(OC)cc23)c1 showed an IC50 (second compound 0.1 µM) of over 10000 nM, an IC50 (second compound 0.316 µM) of over 10000 nM and an IC50 (second compound 1 µM) of over 10000 nM. The IC50 (second compound 3.16 µM) was under 31.6 nM, the IC50 (second compound 10 µM) was under 31.6 nM and the viability, T/C [1] was 95.3%. The viability, T/C [2] was 178%, the viability, T/C [3] was 165% and the viability, T/C [4] was 150%. The viability, T/C [5] was 167%, the viability, T/C [6] was 155% and the viability, T/C [7] was 132%. It also gave a viability, T/C [8] of 145%, a viability, T/C [9] of 124% and a viability, T/C [10] of 140%. For the same molecule, the viability, T/C [11] was 147%, the viability, T/C [12] was 134% and the viability, T/C [13] was 108%. For the same molecule, the viability, T/C [14] was 123%, the viability, T/C [15] was 159% and the viability, T/C [16] was 156%. The viability, T/C [17] was 142%, the viability, T/C [18] was 120% and the viability, T/C [19] was 0.27%. It also gave a viability, T/C [20] of 2.41%, a viability, T/C [21] of 15.8% and a viability, T/C [22] of 0.43%. For the same molecule, the viability, T/C [23] was 0.37%, the viability, T/C [24] was 4.13% and the viability, T/C [25] was 0.16%. It also gave a viability, T/C [26] of 0.15%, a viability, T/C [27] of 0.17% and a viability, T/C [28] of 0.16%. The viability, T/C [29] was 0.17% and the viability, T/C [30] was 0.22%.
For COC(=O)c1ccc2c(C(=Nc3ccc(N(C)C(=O)CN4CCN(C)CC4)cc3)c3ccccc3)c(O)[nH]c2c1 + CC1OCC2(CCN(c3cnc(Sc4ccnc(N)c4Cl)c(N)n3)CC2)C1N, the IC50 (second compound 0.1 µM) was 739 nM, the IC50 (second compound 0.316 µM) was 1610 nM and the IC50 (second compound 1 µM) was 611 nM. It also gave an IC50 (second compound 3.16 µM) of 570 nM, an IC50 (second compound 10 µM) of under 31.6 nM and a viability, T/C [1] of 100%. For the same molecule, the viability, T/C [2] was 77.4%, the viability, T/C [3] was 83.1% and the viability, T/C [4] was 38.8%. It also gave a viability, T/C [5] of 0.34%, a viability, T/C [6] of 0.23% and a viability, T/C [7] of 83.5%. The viability, T/C [8] was 85.1%, the viability, T/C [9] was 84.3% and the viability, T/C [10] was 88.5%. For the same molecule, the viability, T/C [11] was 0.25%, the viability, T/C [12] was 0.21% and the viability, T/C [13] was 96%. The viability, T/C [14] was 83.1%, the viability, T/C [15] was 92.5% and the viability, T/C [16] was 19.6%. It also gave a viability, T/C [17] of 0.22%, a viability, T/C [18] of 0.2% and a viability, T/C [19] of 89.7%. For the same molecule, the viability, T/C [20] was 92.2%, the viability, T/C [21] was 86.4% and the viability, T/C [22] was 15.2%. For the same molecule, the viability, T/C [23] was 0.17%, the viability, T/C [24] was 0.19% and the viability, T/C [25] was 24.4%. For the same molecule, the viability, T/C [26] was 32.6%, the viability, T/C [27] was 5.99% and the viability, T/C [28] was 2.24%. It also gave a viability, T/C [29] of 0.2% and a viability, T/C [30] of 0.32%.
Work on CC(=O)Nc1cccc(-n2c(=O)n(C3CC3)c(=O)c3c(Nc4ccc(I)cc4F)n(C)c(=O)c(C)c32)c1 + C=CC(=O)N1CCN(c2nc(OCC3CCCN3C)nc3c2CCN(c2cccc4cccc(C)c24)C3)CC1CC#N yielded an IC50 (second compound 0.0316 µM) of 31.6 nM, an IC50 (second compound 0.1 µM) of over 31.6 nM and an IC50 (second compound 0.316 µM) of 23.1 nM. It also gave an IC50 (second compound 1 µM) of over 31.6 nM, an IC50 (second compound 3.16 µM) of 5.99 nM and a viability, T/C (second compound 0.0316 µM, first compound 0.0001 µM) of 92%. For the same molecule, the viability, T/C [31] was 94.8%, the viability, T/C [32] was 119% and the viability, T/C [33] was 128%. It also gave a viability, T/C [34] of 101%, a viability, T/C [35] of 49.8% and a viability, T/C (second compound 0.1 µM, first compound 0.0001 µM) of 84%. For the same molecule, the viability, T/C [36] was 92.6%, the viability, T/C [37] was 97.5% and the viability, T/C [38] was 111%. For the same molecule, the viability, T/C [39] was 94.9%, the viability, T/C [1] was 50.5% and the viability, T/C (second compound 0.316 µM, first compound 0.0001 µM) was 83.6%. It also gave a viability, T/C [40] of 92.1%, a viability, T/C [41] of 96.7% and a viability, T/C [42] of 110%. For the same molecule, the viability, T/C [43] was 92.1%, the viability, T/C [7] was 33.9% and the viability, T/C (second compound 1 µM, first compound 0.0001 µM) was 110%. For the same molecule, the viability, T/C [44] was 95%, the viability, T/C [45] was 102% and the viability, T/C [46] was 106%. It also gave a viability, T/C [47] of 71.4%, a viability, T/C [13] of 53.4% and a viability, T/C (second compound 3.16 µM, first compound 0.0001 µM) of 62.2%. The viability, T/C [48] was 107%, the viability, T/C [49] was 105% and the viability, T/C [50] was 121%. The viability, T/C [51] was 5.74% and the viability, T/C [19] was 16.1%.
CC(C)n1nc(-c2ccc3oc(N)nc3c2)c2c(N)ncnc21 + C=CC(=O)N1CCN(c2nc(OCC3CCCN3C)nc3c2CCN(c2cccc4cccc(C)c24)C3)CC1CC#N showed an IC50 (second compound 0.0316 µM) of over 100 nM, an IC50 (second compound 0.1 µM) of over 100 nM and an IC50 (second compound 0.316 µM) of over 100 nM. For the same molecule, the IC50 (second compound 1 µM) was over 100 nM, the IC50 (second compound 3.16 µM) was 9.07 nM and the viability, T/C [31] was 111%. It also gave a viability, T/C [32] of 86.4%, a viability, T/C [33] of 116% and a viability, T/C [34] of 153%. The viability, T/C [35] was 113%, the viability, T/C (second compound 0.0316 µM, first compound 0.1 µM) was 141% and the viability, T/C [36] was 81.6%. The viability, T/C [37] was 106%, the viability, T/C [38] was 119% and the viability, T/C [39] was 162%. The viability, T/C [1] was 113%, the viability, T/C [2] was 108% and the viability, T/C [40] was 92%. It also gave a viability, T/C [41] of 97.3%, a viability, T/C [42] of 129% and a viability, T/C [43] of 154%. The viability, T/C [7] was 115%, the viability, T/C [8] was 94.7% and the viability, T/C [44] was 89.3%. The viability, T/C [45] was 108%, the viability, T/C [46] was 105% and the viability, T/C [47] was 154%. The viability, T/C [13] was 98.7%, the viability, T/C [14] was 85.2% and the viability, T/C [48] was 106%. The viability, T/C [49] was 84.9%, the viability, T/C [50] was 116% and the viability, T/C [51] was 39.9%. It also gave a viability, T/C [19] of 64.4% and a viability, T/C [20] of 31.2%.

— PubChem BioAssay AID1963865 (Molecular Pharmacology Branch, DTP, NCI, 2024)
